# Laboratory results reported in patent US6495585B2, “Method for treating hyperproliferative tissue in a mammal” (Health Research, Inc., priority 2001, dated 2002).
# Key:
# tumor blood flow = conditions: in vivo; cited from earlier work
# [1] = system: natural killer cell activity; conditions: spleen and other tissues; cited from earlier work
# tumor cell lines = conditions: cited from earlier work
# Colon 38 tumors = conditions: compared with FAA; cited from earlier work
# RIF-1 tumors = system: RIF-1 tumors
# Protocol: The drawings illustrate the responses of RIF-1 tumors to either PDT (FIG. 2a) or DMXAA (FIG. 2b). Dose response data are shown in the form of Kaplan-Meier ‘survival’ plots, where the percent of RIF-1 tumors with volumes less than […] are plotted against time from treatment. Tumor volumes at the time of treatment were 50-70 mg (approximately […] of the mouse body mass).
# In pilot studies of PDT plus adjuvant DMXAA only low doses of each modality were chosen. […] 23 hours, 20 mg DMXAA/kg. 2 hours, 135 J/cm^263-nm laser light. Control tumors (no drug, no light) are shown as solid black squares; DMXAA are shown as open circles; PDT alone as gray circles.
# The symbols in the graph are the same as for FIG. 3.
# implanted murine tumors = conditions: compared with FAA; cited from earlier work
# TNF-α = conditions: cited from earlier work
# [2] = system: cultured human and murine cells; conditions: cited from earlier work
structure (smiles),measurement,setting,value
"O=C(O)Cc1cccc2c(=O)cc(-c3ccccc3)oc12 [FAA, Flavone-8-acetic acid]",effect on tumor blood flow,tumor blood flow,causes reduction in tumor blood flow
same,natural killer cell activity,[1],induces natural killer cell activity
same,in vitro activity against tumor cell lines,tumor cell lines,shows in vitro activity against a number of tumor cell lines
"O=C(O)Cc1cccc2c(=O)c3ccccc3oc12 [XAA, Xanthenone-4-acetic acid]",efficiency in eliminating Colon 38 tumors,Colon 38 tumors,more efficient than FAA
"Cc1ccc2c(=O)c3cccc(CC(=O)O)c3oc2c1C [DMXAA, 5,6-Dimethylxanthenone-4-acetic acid]",tumor control (percent of RIF-1 tumors with volumes less than 400 mm vs time from treatment),"RIF-1 tumors; administered alone, Kaplan-Meier plots, FIG. 2a/2b",control tumors in a dose-dependent manner
same,toxicity of most effective doses,"RIF-1 tumors; mouse, in vivo",most effective doses are at or near the treatment toxic limits
same,dose potency against implanted murine tumors,implanted murine tumors,considerably greater dose potencies than FAA
same,cytokine induction,TNF-α,induce TNF-α along with IFN-γ
same,in vitro activity,[2],active in vitro
